Data taken from patent US12427114B2, “Orodispersible dosage unit containing an estetrol component” (ESTETRA SRL, priority 2015, dated 2025).

Tests used:
[1] = Randomized, open-label, two-period, cross-over pharmacokinetic study, sublingual versus oral 10 mg estetrol tablet; format: in vivo, human; settings: 10 mg estetrol sublingual vs oral; healthy female volunteers
Protocol: A randomized, open-label, two-period, cross-over, pharmacokinetic study is conducted to compare sublingual bioavailability of 10 mg estetrol administered in one 80 mg tablet (having the same composition as the tablets described in Example 4, Formulation E) with oral availability of estetrol contained in a 83 mg tablet containing 10 mg estetrol. These tablets are administered sublingually and orally to healthy female volunteers under fasting conditions.
Ten healthy female subjects are selected on the basis of the following criteria: age of 45-65 years (inclusive), nonsmokers or past smokers (at least 6 months before dosing), body-mass index (BMI)=18.5 to 30 kg/m^2 (inclusive at the time of the screening).
At the start of the first and the second period of the study, between 07:00 am and 07:28 am, 5 subjects receive a single dose of the sublingual formulation of estetrol by administering one estetrol tablet (tablet weight 80 mg; 10 mg estetrol) and 5 subjects receive a single oral dose of the oral estetrol formulation by administering one estetrol tablet (tablet weight 83 mg; 10 mg estetrol), ingested together with 200 ml water. […]
The estetrol concentration in the collected blood samples is determined by means of HPLC/MS/MS. The concentrations of glucuronided estetrol (D-ring) in the urine samples is also determined with the help of HPLC/MS/MS.

[2] = humans; cited from earlier work
[3] = system: estrogen receptors; settings: in vitro; cited from earlier work
[4] = biological target: T1, sex hormone binding globulin (SHBG) (Homo sapiens, UniProt P04278); settings: cited from earlier work
T1 sequence (P04278 30-402): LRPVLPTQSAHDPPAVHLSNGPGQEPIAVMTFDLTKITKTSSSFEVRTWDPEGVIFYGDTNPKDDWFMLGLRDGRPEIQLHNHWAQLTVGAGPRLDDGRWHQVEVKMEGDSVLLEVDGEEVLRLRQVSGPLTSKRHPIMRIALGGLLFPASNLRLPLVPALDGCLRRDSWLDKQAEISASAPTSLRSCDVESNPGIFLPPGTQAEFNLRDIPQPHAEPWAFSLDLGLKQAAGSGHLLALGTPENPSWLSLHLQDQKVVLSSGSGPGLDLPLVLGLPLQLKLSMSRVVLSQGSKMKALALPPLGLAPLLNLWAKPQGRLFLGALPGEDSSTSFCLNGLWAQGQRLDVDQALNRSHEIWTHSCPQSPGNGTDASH

[5] = system: production of SHBG; settings: in vitro; cited from earlier work
[6] = system: vagina, uterus, body weight, bone mass, bone strength, hot flushes, ovulation; settings: ovulation (inhibition), dose-dependent; cited from earlier work
[7] = system: DMBA mammary tumour; settings: extent and dose level similar to tamoxifen and to ovariectomy; cited from earlier work
[8] = system: human breast cancer cells; settings: in vitro; cited from earlier work

## C[C@]12CC[C@@H]3c4ccc(O)cc4CC[C@H]3[C@@H]1[C@@H](O)[C@@H](O)[C@@H]2O [estetrol, 1,3,5 (10)-estratrien-3,15α,16α, 17β-tetrol]
[1]
  Impact on a liver function parameter, sublingual compared with oral: less impact on a liver function parameter
[2]
  Oral bioavailability: high and dose-proportional
  Terminal elimination half-life: about 28 hours
[3]
  Estrogen receptor binding selectivity: binds highly selective to the estrogen receptors with preference for the ERα form
[4]
  Binding to SHBG: does not bind
[5]
  Stimulation of the production of SHBG: does not stimulate
[6]
  Estrogenic effects in rat models: exhibited estrogenic effects
[7]
  Tumour development: prevented tumour development
[8]
  Effect in the presence of 17β-estradiol: anti-estrogenic effect
